System: smooth muscle contraction in ileum
Test: Muscle contraction inhibition experiment (acetylcholine-induced smooth muscle contraction in isolated ileum)
Design: species or system SD rats
Settings: after acetylcholine, rat ileum
Excerpt: 10 week old female SD rats weighing 220 g-260 g.
HW-400S constant temperature smooth muscle trough, BL-420E biological function experimental system, tension transducer, and other instruments as conventional experimental instruments.
acetylcholine chloride (Shanghai Yuanye), chloral hydrate (Shanghai Macklin).
• Acetyl octapeptide-3(Ac-Glu-Glu-Met-Gln-Arg-Arg-Ala-Asp-NH2), at a test concentration of 25 ppm, 50 ppm, 100 ppm, and 200 ppm, respectively; • Acetyl hexapeptide-30(Ac-Glu-Asp-Tyr-Tyr-Arg-Leu-NH2), at a test concentration of 25 ppm, 50 ppm, 100 ppm, and 200 ppm, respectively; • the peptide (4), at a test concentration of 25 ppm, 50 ppm, 100 ppm, and 200 ppm, respectively; • the peptide (8), at a test concentration of 25 ppm, 50 ppm, 100 ppm, and 200 ppm, respectively; • the peptide (32), at a test concentration of 100 ppm, 200 ppm, 400 ppm, and 800 ppm, respectively.
The experimental rats were fasted except for water for 12 hours before the experiment. 10% chloral hydrate was injected intraperitoneally into the rats at a dosage of 0.1 mL/25 g, and after the rats were anesthetized, the abdominal cavity was cut open to expose the enlarged cecum. A segment of ileum was taken out from the ileocecal region and washed clean in a tyrode's solution pre-bubbled with oxygen for 10 min, and several 4 cm long segments of ileum were cut and incubated in a tyrode's solution at 4° C. for subsequent use; and both ends of the ileum were tied partially and knotted with cotton threads to form a loop.
The HW-400S constant temperature smooth muscle trough and the BL-420E biological function experimental system were turned on, the tension transducer was connected to channel 1, the incubation temperature was adjusted to 37° C., the instruments were preheated for 0.5 hours, and oxygen was bubbled for more than 10 min. One end of the ileum segment is fixed to the intake bracket port with a cotton thread, and the other end thereof is connected to the tension transducer. The position and height of the transducer were appropriately adjusted to place the excised ileum segment in the center of the smooth muscle trough and then record of ileum activity was started.
After the muscle contraction was stabilized, acetylcholine with a final concentration of 0.1-1 μg/mL was added until a high and stable waveform appears in the muscle activity, and the action lasted for 5 minutes as the initial control. After balancing for 5 minutes, the samples to be tested were added respectively. Each time the test drug was replaced, the ileum segment was replaced with a new one, and relevant data was recorded by the instruments. The inhibition rate of smooth muscle contraction in ileum was calculated according to the following formula:
Inhibition rate of smooth muscle contraction in ileum=(contraction force after acetylcholine administration−contraction force after test sample administration)/contraction force after acetylcholine administration×100%
The experimental data was represented by mean standard deviation (Mean±SD).

Row | Substance | Inhibition rate of smooth muscle contraction in ileum (25 ppm, Mean±SD) [%] | Inhibition rate of smooth muscle contraction in ileum (50 ppm, Mean±SD) [%] | Inhibition rate of smooth muscle contraction in ileum (100 ppm, Mean±SD) [%] | Inhibition rate of smooth muscle contraction in ileum (200 ppm, Mean±SD) [%] | Inhibition rate of smooth muscle contraction in ileum (800 ppm) [%]
1 | Ac-Glu-Glu-Met-Gln-Arg-Arg-Ala-Asp-NH2 (Ac-EEMQRRAD-NH2) [Acetyl octapeptide-3, polypeptide in the prior art used as comparison sample, reference compound] | 10.2 ± 1.23 | 32.34 | 47.49 | 58.67 | 
2 | Ac-Glu-Asp-Tyr-Tyr-Arg-Leu-NH2 (Ac-EDYYRL-NH2) [Acetyl hexapeptide-30, polypeptide in the prior art used as comparison sample, reference compound] | 0.00 ± 2.45 | 0.47 ± 2.09 | 2.73 ± 0.66 | 48.09 | 
3 | Ac-Val-Lys-Val-Leu-Gln-Trp-NH2 (Ac-VKVLQW-NH2) [Peptide (4)] | 49.78 | 62.40 | 66.72 | 76.88 | 
4 | Ac-Ser-Met-Gly-Ala-Leu-Ala-NH2 (Ac-SMGALA-NH2) [Peptide (8)] | 31.99 | 34.35 | 56.42 | 67.96 | 
5 | Ac-Trp-Ala-Ala-Pro-Phe-Leu-Arg-Ala-NH2 (Ac-WAAPFLRA-NH2) [(32)] |  |  |  |  | 44.41

Reference: patent publication US20250019400A1, “POLYPEPTIDE AND COSMETIC COMPOSITION OR PHARMACEUTICAL COMPOSITION AND USE THEREOF” (SHENZHEN WINKEY TECHNOLOGY CO., LTD, priority 2022, published 2025)
